Results reported in patent publication US20040102383A1, “Growth inhibition and eradication of solid tumors using neuroendocrine resetting therapy and photodynamic therapy” (priority 1996, published 2004).

Experiments:
EMT-6 cells [1] = experiment: EMT-6 implanted tumor mouse model: PDT with EtNBS with or without bromocriptine and melatonin (Example 6); assay type: in vivo, Balb/c mice
Experimental: (§1) Adult (6-7 wk old) male Balb/c mice are subcutaneously injected with EMT-6 cells (1.7×10^6 cells) on the hind quarter and are divided into four groups (n=10 per group) and are treated as follows: group 1 receives photodynamic therapy (PDT) at 14 days after tumor inoculation. PDT consists of subcutaneously injecting a benzophenothiazine photosensitizer (EtNBS)(7.5 mg/kg of body weight) and 3 hrs later irradiating the tumor with 652 nm light at a power density of 50 mW/cm^2 and a total energy of 100 J/cm^2. Group 2 receives intraperitoneal melatonin (8 mg/kg) at 10 hours after light onset and intraperitoneal bromocriptine (50 mcg/mouse) at 0 hours after light onset starting at 7 days after tumor inoculation and continuing for 14 days. Group 3 receives both PDT (as described above) and intraperitoneal bromocriptine and intraperitoneal melatonin (as described above). Group 4 remains untreated (control). Fourteen days following PDT tumor volume is determined in all animals.

EMT-6 cells [2] = experiment: EMT-6 implanted tumor mouse model: PDT with EtNBS with or without melatonin (Example 5); assay type: in vivo, Balb/c mice
Experimental: Adult (6-7 wk old) male Balb/c mice are injected subcutaneously with EMT-6 cells (1.7×10^6 cells) on the hind quarter and are divided into four groups (n=10 per group) and are treated as follows: group 1 receives photodynamic therapy (PDT) at 14 days after tumor inoculation. PDT consists of subcutaneously injecting a benzophenothiazine photosensitizer (EtNBS)(7.5 mg/kg of body weight) and 3 hrs later irradiating the tumor with 652 nm light at a power density of 50 mW/cm^2 and a total energy of 100 J/cm^2. Group 2 receives intraperitoneal melatonin (8 mg/kg) at 10 hours after light onset starting at 7 days after tumor inoculation and continuing for 14 days. Group 3 receives both PDT (as described above) and intraperitoneal melatonin (as described above). Group 4 remains untreated (control). Fourteen days following PDT tumor volume is determined in all animals.

EMT-6 cells [3] = experiment: EMT-6 implanted tumor mouse model: PDT with EtNBS with or without bromocriptine (Example 4); assay type: in vivo, Balb/c mice; conditions: PDT alone (EtNBS 7.5 mg/kg sc, 652 nm, 50 mW/cm2, 100 J/cm^2)
Experimental: as §1, with “mW/cm2” for “mW/cm^2”, “receives” for “receives intraperitoneal melatonin (8 mg/kg) at 10 hours after light onset and”, “bromocriptine” for “bromocriptine and intraperitoneal melatonin”

[4] = system: EMT-6 cells derived from a murine mammary sarcoma; experiment: EMT-6 implanted tumor mouse model: PDT with EtNBS with or without timed prolactin (Examples 1-2); assay type: in vivo, Balb/c mice
Experimental: Adult (6-7 wk old) male Balb/c mice were subcutaneously injected with EMT-6 cells derived from a murine mammary sarcoma (1.7×10^6 cells) on the hind quarter and were divided into four groups (n=10 per group) and treated as follows: Group 1 (D+L) received photodynamic therapy at 14 days after tumor inoculation. Photodynamic therapy consisted of subcutaneously injecting a benzophenothiazine photosensitizer (EtNBS, FIG. 7)(7.5 mg/kg of body weight) and 3 hrs later irradiating the tumor with 652 nm light at a power density of 150 mW/cm2 and a total energy of 100 J/cm^2. Group 2 (PRL) received intraperitoneal ovine prolactin (20 mcg/mouse) at 10 hours after light onset starting at 7 days after tumor inoculation and continuing for 14 days. Group 3 (D+L+PRL) received both PDT (as described above) and prolactin (as described above). Group 4 (CON) remained untreated (control). Fourteen days following PDT tumor volume was determined in all animals.
Example 1 was repeated with different PDT power density and energy characteristics (for groups 2 and 3) which better optimize the PDT effect. […] Under these conditions, tumor “cure” (tumor-free for at least 90 days) of 4-8 mm diameter tumors can be achieved in 70-100% of the cases largely dependent upon the tumor size at the time of PDT. However, if intraperitoneal prolactin administration (20 mcg/mouse/day at 10 hours after light onset) is added to PDT treatment (starting from the day of tumor cell inoculation), then the tumor cure rate is 100%.
The typical response observed using PDT alone with the PDT parameters employed are (in sequence): 1) an inflammation of the photoirradiated spot encompassing the tumor within about 30 minutes which increases to a maximum inflammation at about 3-5 hours; 2) inflammation completely subsides in 48-72 hours leaving noticeable tumor which takes 14 days to regress completely. Eschar formation occurs at 24-48 hours.
At 4-7 days the irradiated area has healed completely. This response cannot be obtained with PDT or prolactin alone.

[5] = in vivo; cited from earlier work
body fat stores = conditions: cited from earlier work
[6] = system: EMT-6 cells derived from a murine mammary sarcoma; experiment: EMT-6 implanted tumor mouse model: PDT with Dye 4-115 with or without timed prolactin (Example 3); assay type: in vivo, Balb/c mice
Experimental: Adult (6-7 wk old) male Balb/c mice are subcutaneously injected with EMT-6 cells derived from a murine mammary sarcoma (1.7×10^6 cells) on the hind quarter and are divided into four groups (n=10 per group) and are treated as follows: group 1 receives photodynamic therapy (PDT) at 14 days after tumor inoculation. PDT consists of intravenously injecting a benzophenothiazine photosensitizer (Dye 4-115)(2.5 mg/kg of body weight) and 1 hr later irradiating the tumor with a broad wavelength light source (600-700 nm) at a power density of 50 mW/cm^2 and a total energy of 100 J/cm^2. Group 2 receives intraperitoneal ovine prolactin (20 mcg/mouse) at 10 hours after light onset starting at 7 days after tumor inoculation and continuing for 14 days. Group 3 receives both PDT (as described above) and prolactin (as described above). Group 4 remains untreated (control). Fourteen days following PDT tumor volume is determined in all animals.

immune responses = conditions: timed daily administration within a specific window of time; no effect outside it; cited from earlier work
tumor burden = experiment: Timed prolactin injections in tumor bearing mice; assay type: in vivo; conditions: circadian rhythms synchronized with a defined photoperiod; versus tumor bearing mice without timed prolactin injections
[7] = PDT alone (EtNBS 7.5 mg/kg sc, 652 nm, 50 mW/cm^2, 100 J/cm^2)
[8] = ip prolactin added to EtNBS PDT
[9] = ip prolactin added to Dye 4-115 PDT

CCNc1cc2sc3cc(=[N+](CC)CC)ccc-3nc2c2ccccc12.[Cl-] [EtNBS]
tumor volume fourteen days following PDT (EMT-6 cells [1]; [7]): significantly reduced
tumor volume fourteen days following PDT (EMT-6 cells [2]; [7]): significantly reduced
tumor volume fourteen days following PDT (EMT-6 cells [3]): significantly reduced
tumor "cure" (tumor-free for at least 90 days) ([4]; PDT alone (EtNBS 7.5 mg/kg sc, 652 nm, 50 mW/cm^2, 180 J), 4-8 mm diameter tumors): 70-100%
onset of inflammation of the photoirradiated spot ([4]; PDT alone (EtNBS)): ≤ 30 min
time for noticeable tumor to regress completely ([4]; PDT alone (EtNBS)): 14 days
time of eschar formation ([4]; PDT alone (EtNBS)): 24 to 48 h
time of maximum inflammation ([4]; PDT alone (EtNBS)): 3 to 5 h
time until inflammation completely subsides ([4]; PDT alone (EtNBS)): 48 to 72 h

COc1ccc2[nH]cc(CCNC(C)=O)c2c1 [melatonin]
tumor volume fourteen days following PDT (EMT-6 cells [1]; EtNBS PDT plus ip bromocriptine and ip melatonin): significantly reduced or entirely eradicated
tumor volume fourteen days following PDT (EMT-6 cells [1]; ip melatonin 8 mg/kg at 10 hours plus ip bromocriptine 50 mcg/mouse at 0 hours after light onset, no PDT): significantly reduced
tumor volume fourteen days following PDT (EMT-6 cells [2]; EtNBS PDT plus ip melatonin): significantly reduced or entirely eradicated
tumor volume fourteen days following PDT (EMT-6 cells [2]; ip melatonin alone, 8 mg/kg at 10 hours after light onset for 14 days): significantly reduced
effect on growth of tumors (EMT-6 cells [2]; mice, melatonin at the time when melatonin levels are peaking in healthy mice): potent inhibitory effect on growth of tumors

hematoporphyrin [HPD]
dermal photosensitization due to prolonged retention in the skin [5]: can persist for months

B1: prolactin: hormone; prolactin enhancer, given as intraperitoneal ovine prolactin (protein, UniProt P01240 31-229, looked up)
Prolactin: TPVCPNGPGNCQVSLRDLFDRAVMVSHYIHNLSSEMFNEFDKRYAQGKGFITMALNSCHTSSLPTPEDKEQAQQTHHEVLMSLILGLLRSWNDPLYHLVTEVRGMKGVPDAILSRAIEIEEENKRLLEGMEMIFGQVIPGAKETEPYPVWSGLPSLQTKDEDARHSAFYNLLHCLRRDSSKIDTYLKLLNCRIIYNNNC
increase in body fat levels (body fat stores; prolactin injections at midday of a 16-hour daily photoperiod): 3 fold
reduction of fat stores (body fat stores; prolactin injections given early in the photoperiod): 50%
tumor cure rate ([4]; ip prolactin 20 mcg/mouse/day at 10 hours after light onset from day of inoculation, added to EtNBS PDT (50 mW/cm^2, 180 J)): 100%
time at which the irradiated area has healed completely [4, 8]: 4 to 7 days
time to complete tumor eradication [4, 8]: ≤ 24 h
time to severe eschar formation [4, 8]: ≤ 24 h
treated animals exhibiting severe eschar formation [4, 8]: 100%
tumor cure rate ([4]; mouse models, prolactin at the appropriate time interval combined with PDT): ~100%
treated animals exhibiting severe eschar formation ([6]; ip ovine prolactin 20 mcg/mouse at 10 hours after light onset added to Dye 4-115 PDT): 100%
time at which the irradiated area will heal completely [6, 9]: 4 to 7 days
time to complete tumor eradication [6, 9]: ≤ 24 h
time to severe eschar formation [6, 9]: ≤ 24 h
effect on immune function (immune responses): immunostimulatory effect
tumor burden (tumor burden): decreased tumor burden
